The subject of series [1] is Human immunodeficiency virus 1. In words: Antiviral activity against HIV1 3B infected in human MT4 cells assessed as reduction in virus-induced cytopathic effect by MTT assay. The series is classed as functional, organism-based. The note with it: Human immunodeficiency virus 1, 3B.
Series [2] relates to Human immunodeficiency virus 1. As to the kind of experiment: Antiviral activity against HIV1 RES056 harboring K103N/Y181C double mutant infected in human MT4 cells assessed as reduction in virus-induced cytopathic effect by MTT assay. The series is classed as functional, organism-based. For orientation: Damage to the host cells serves as the signal in cytopathic effect assays.

The nature of series [3]: (§1) Cytotoxicity against human MT4 cells assessed as reduction in cell viability by MTT assay. The series is classed as cell-based. The note with it: MT4 cells.
The nature of series [4]: Selectivity index, ratio of CC50 for human MT4 cells to EC50 for antiviral activity against HIV 3B infected in human MT4 cells. In kind it is toxicity, cell-based. The note with it: read-out: Ratio CC50/EC50.
Series [5] is described as follows: Selectivity index, ratio of CC50 for human MT4 cells to EC50 for antiviral activity against HIV HIV1 RES056 harboring K103N/Y181C double mutant infected in human MT4 cells. In kind it is toxicity, cell-based. The following applies: read-out: Ratio CC50/EC50.
The subject of series [6] is Human immunodeficiency virus 1. In words: Potency index, ratio of etravirine EC50 to test compound EC50 for antiviral activity against HIV1 3B infected in human MT4 cells assessed as reduction in virus-induced cytopathic effect by MTT assay. In kind it is functional.
The subject of series [7] is Human immunodeficiency virus 1. As to the kind of experiment: Antiviral activity against HIV1 harboring L100I mutant infected in human MT4 cells assessed as reduction in virus-induced cytopathic effect by MTT assay. The series is classed as functional, organism-based. The note with it: Human immunodeficiency virus 1, MT4.
In series [8] the test system is Human immunodeficiency virus 1. As to the kind of experiment: Antiviral activity against HIV1 harboring K103N mutant infected in human MT4 cells assessed as reduction in virus-induced cytopathic effect by MTT assay. The following applies: Human immunodeficiency virus 1, MT4. In kind it is functional, organism-based.
Series [9] has as its system Human immunodeficiency virus 1. As to the kind of experiment: Antiviral activity against HIV1 harboring Y181C mutant infected in human MT4 cells assessed as reduction in virus-induced cytopathic effect by MTT assay. The series is classed as functional, organism-based. The note with it: Human immunodeficiency virus 1, MT4.
For series [10], the system named is Human immunodeficiency virus 1. As to the kind of experiment: Antiviral activity against HIV1 harboring Y188L mutant infected in human MT4 cells assessed as reduction in virus-induced cytopathic effect by MTT assay. The series is classed as functional, organism-based. The note with it: Human immunodeficiency virus 1, MT4.
In series [11] the test system is Human immunodeficiency virus 1. As to the kind of experiment: Antiviral activity against HIV1 harboring E138K mutant infected in human MT4 cells assessed as reduction in virus-induced cytopathic effect by MTT assay. The series is classed as functional, organism-based. The following applies: Human immunodeficiency virus 1, MT4.
Series [12] has as its system Human immunodeficiency virus 1. In words: Antiviral activity against HIV1 harboring F227L/V106A mutant infected in human MT4 cells assessed as reduction in virus-induced cytopathic effect by MTT assay. The series is classed as functional, organism-based. The note with it: Human immunodeficiency virus 1, MT4.
Series [13] relates to Human immunodeficiency virus 1. As to the kind of experiment: Potency index, ratio of etravirine EC50 to test compound EC50 for antiviral activity against HIV1 harboring K103N mutant infected in human MT4 cells assessed as reduction in virus-induced cytopathic effect by MTT assay. In kind it is functional.
In series [14] the target is Human immunodeficiency virus type 1 reverse transcriptase (Human immunodeficiency virus 1, UniProt Q72547). As to the kind of experiment: Inhibition of HIV1 reverse transcriptase assessed as reduction in biotin-dUTP incorporation into template incubated for 1 hr by ELISA. For orientation: An ELISA detects its analyte on a solid surface through an enzyme-linked reagent.

The test system of series [15] is MT4. The description is as §1. In kind it is cell-based. The note with it: mt4.
Setting [16] is: Human immunodeficiency virus 1, RES056, MT4, read-out: EC50.

From ChEMBL document CHEMBL4732113, “Exploiting the tolerant region I of the non-nucleoside reverse transcriptase inhibitor (NNRTI) binding pocket. Part 2: Discovery of diarylpyrimidine derivatives as potent HIV-1 NNRTIs with high Fsp values and favorable drug-like properties” (Eur J Med Chem, 2021) come the findings set out here.

A word on the CC50: it is the concentration at which the toxic effect on the cells reaches its halfway point. The IC50 is the point on the concentration scale where inhibition reaches its midpoint. For `Cc1cc(/C=C/C#N)cc(C)c1Oc1ccnc(Nc2ccc(CN3CCS(=O)(=O)CC3)cc2)n1`, the EC50 in [1] (read-out: EC50) was 2.1 nM; in series [1] (read-out: pEC50 (converted)) it was 2.09 nM; in [2] (setting [16]) it was 1080 nM; in [7], 11 nM; in [8], 1.9 nM; in [9], 33 nM. For the same molecule, the EC50 in series [10] came out at 3090 nM; in series [11], 7.5 nM; in [12] it was 91 nM. In series [3], the CC50 was determined as 18500 nM. Besides, the selectivity ratio is 8640 in series [4] and 17 in [5]. Also, the “Ratio EC50” value is reported as 2 in series [6] and 1.7 in [13]. Also, in [14], the IC50 turned out to be 34 nM.
For the molecule `Cc1cc(C#N)cc(C)c1Oc1ccnc(Nc2ccc(CN3CCCN(S(=O)(=O)C4CC4)CC3)cc2)n1`, the EC50 in [1] (read-out: EC50) was 100 nM; in [1] (read-out: pEC50 (converted)) it was 100 nM; in series [2] (mt4), “Not Active”. Also, the CC50 entry in [15] is “Not Active”. The IC50 in [14] was determined as 200 nM.
`CCS(=O)(=O)N1CCN(Cc2ccc(Nc3nccc(Oc4c(C)cc(/C=C/C#N)cc4C)n3)cc2)CC1`: the EC50 in series [1] (read-out: EC50) was 5.7 nM; in [1] (read-out: pEC50 (converted)) it was 5.75 nM; in series [2] (setting [16]) it was 980 nM; in [7], 15 nM; in series [8] it was 4.9 nM; in series [9] it was 46 nM. Also, the EC50 in [10] is 1280 nM; in [11] it was 17 nM; in [12], 200 nM. In series [3], the CC50 turned out to be 4600 nM. Further, the selectivity ratio in series [4] worked out at 810; in series [5], 5. Besides, the concentration for half-maximal inhibition (IC50) in [14] worked out at 52 nM.
Consider `Cc1cc(/C=C/C#N)cc(C)c1Oc1ccnc(Nc2ccc(CN3CC[S+]([O-])CC3)cc2)n1`, for which the EC50 is 2.4 nM in [1] (read-out: EC50); 2.4 nM in series [1] (read-out: pEC50 (converted)); 2680 nM in series [2] (setting [16]); 20 nM in series [7]; 3.4 nM in [8]; 67 nM in series [9]. For the same molecule, the figures for the EC50 in series [10], in series [11] and in [12] were 5200 nM, 9.8 nM and 350 nM, respectively. Also, the CC50 in [3] worked out at 23400 nM. Besides, the selectivity ratio in series [4] came to 9860; in [5], 9. Also, the “Ratio EC50” value in series [6] came to 2. Moreover, in series [14], the IC50 stood at 51 nM.
Turning to `Cc1cc(/C=C/C#N)cc(C)c1Oc1ccnc(Nc2ccc(CN3CCSCC3)cc2)n1`, the EC50 in series [1] (read-out: EC50) is 4.7 nM; in series [1] (read-out: pEC50 (converted)) it was 4.68 nM; in [2] (setting [16]), 3560 nM; in series [7], 24 nM; in [8], 4.4 nM; in series [9], 99 nM. For the same molecule, the figures for the EC50 in series [10], in [11] and in series [12] were 4280 nM, 25 nM and 280 nM, respectively. For the same molecule, in series [3], the CC50 came out at 14900 nM. The selectivity ratio in series [4] is 3160; in series [5], 4. In series [14], the IC50 is 62 nM.
